Data reported in patent US7511144B2, “Reverse hydroxamic acid derivatives” (Kaken Pharmaceutical Co., Ltd., priority 2001, dated 2009).
Where two headings read alike, the source gives them in different places.

Key:
Format in all cases: biochemical
Human MMP1 = target: T1, Human MMP1 (Homo sapiens, UniProt P03956); assay: MMP1 inhibition experiment; conditions: read-out: IC50 value MMP-1
T1 construct: purchased Calbiochem 444208
T1 sequence (P03956 100-469): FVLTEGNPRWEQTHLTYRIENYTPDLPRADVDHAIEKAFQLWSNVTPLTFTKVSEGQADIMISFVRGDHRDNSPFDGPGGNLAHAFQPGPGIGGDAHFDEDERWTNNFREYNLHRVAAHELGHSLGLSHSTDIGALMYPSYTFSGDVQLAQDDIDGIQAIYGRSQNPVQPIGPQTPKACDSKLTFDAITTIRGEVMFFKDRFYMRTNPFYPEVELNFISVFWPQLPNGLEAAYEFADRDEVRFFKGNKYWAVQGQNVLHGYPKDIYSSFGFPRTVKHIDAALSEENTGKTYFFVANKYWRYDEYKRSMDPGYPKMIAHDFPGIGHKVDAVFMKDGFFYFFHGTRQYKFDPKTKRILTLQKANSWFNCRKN

Human MMP9 = target: T2, Human MMP9 (Homo sapiens, UniProt P14780); assay: MMP9 inhibition experiment; conditions: read-out: IC50 value MMP-9
T2 construct: purchased Calbiochem 444231

Human MMP2 = target: T3, Human MMP2 (Homo sapiens, UniProt P08253); assay: MMP2 inhibition experiment; conditions: concentration required for 50% inhibition of enzyme activity; read-out: IC50 value MMP-2
T3 construct: purchased Calbiochem 444213
T3 sequence (P08253 110-660): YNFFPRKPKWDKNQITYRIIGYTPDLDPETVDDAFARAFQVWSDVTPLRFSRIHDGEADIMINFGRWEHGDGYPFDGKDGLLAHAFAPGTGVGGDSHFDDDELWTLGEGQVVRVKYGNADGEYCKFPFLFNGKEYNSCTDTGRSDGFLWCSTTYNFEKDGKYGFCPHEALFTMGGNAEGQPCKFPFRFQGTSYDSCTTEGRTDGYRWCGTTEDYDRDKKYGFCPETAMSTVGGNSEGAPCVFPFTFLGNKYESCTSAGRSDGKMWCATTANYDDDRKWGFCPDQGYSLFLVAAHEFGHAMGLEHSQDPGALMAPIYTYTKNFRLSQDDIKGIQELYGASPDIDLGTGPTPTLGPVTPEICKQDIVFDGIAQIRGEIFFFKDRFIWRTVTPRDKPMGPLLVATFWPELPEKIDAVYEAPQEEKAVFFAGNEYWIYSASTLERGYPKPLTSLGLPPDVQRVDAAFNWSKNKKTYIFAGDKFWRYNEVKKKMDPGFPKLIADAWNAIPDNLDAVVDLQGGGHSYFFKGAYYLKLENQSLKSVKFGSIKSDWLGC

Human MMP13 = target: T4, Human MMP13 (Homo sapiens, UniProt P45452); assay: MMP13 inhibition experiment; conditions: concentration required for 50% inhibition of enzyme activity; read-out: IC50 value MMP-13
T4 construct: purchased Chemicon CC068

Human MMP17 = target: T5, Human MMP17 (Homo sapiens, UniProt Q9ULZ9); assay: MMP17 inhibition test; conditions: concentration required for 50% inhibition of enzyme activity; read-out: IC50 value MMP-17
T5 construct: purchased Calbiochem 475940
T5 sequence (Q9ULZ9 126-300 limits assumed): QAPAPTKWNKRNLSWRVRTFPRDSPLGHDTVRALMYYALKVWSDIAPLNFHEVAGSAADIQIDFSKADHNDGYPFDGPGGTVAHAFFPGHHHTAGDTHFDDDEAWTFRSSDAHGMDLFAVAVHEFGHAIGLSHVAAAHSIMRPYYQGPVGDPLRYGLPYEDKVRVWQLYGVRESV

Human MMP14 = target: T6, Human MMP14 (Homo sapiens, UniProt P50281); assay: MMP14 inhibition experiment; conditions: concentration required for 50% inhibition of enzyme activity; read-out: IC50 value MMP-14
T6 construct: purchased Biogenesis or Calbiochem 5980-1461 or 475935
Description: (§1) MMP inhibition experiment may be carried out using a fluorescent synthetic substrate according to, for example, the methods of Bickett et al. (D. Mark Bickett et al., Anal. Biochem., 1993, 212, 58-64) and Nagase et al. (H. Nagase et al., J. Biol. Chem., 1994, 269, 20952-20957). The methods of inhibition experiments carried out for various MMPs are described below.
Human MMP14 (Biogenesis #5980-1461 or Calbiochem #475935) in amount of 90 μL (4 ng) prepared in the assay buffer A was added to 90 μL of 20 μM fluorescent substrate (Dnp-Pro-Cha-Gly-Cys(Me)-His-Ala-Lys(Nma)-NH2) prepared in the assay buffer B, followed by reaction for 5 hours at 37° C.

Human MMP3 = target: T7, Human MMP3 (Homo sapiens, UniProt P08254); assay: MMP3 inhibition experiment; conditions: concentration required for 50% inhibition of enzyme activity; read-out: IC50 value MMP-3
T7 construct: purchased Calbiochem 444217
Description: as §1
Human MMP3 (Calbiochem #444217) in 90 μL (5 ng) prepared in the assay buffer A was added to 90 μL of 20 μM fluorescent substrate NFF-3(MOCAc-Arg-Pro-Lys-Pro-Val-Glu-Nva-Trp-Arg-Lys(Dnp)-NH2, Peptide Institute, Inc., #3168-v) prepared in the assay buffer B, followed by reaction for 5 hours at 37° C.

Human MMP8 = target: T8, Human MMP8 (Homo sapiens, UniProt P22894); assay: MMP8 inhibition experiment; conditions: concentration required for 50% inhibition of enzyme activity; read-out: IC50 value MMP-8
T8 construct: purchased Calbiochem 444229
Description: as §1
Human MMP8 (Calbiochem #444229) in amount of 90 μL (30 ng) was activated by mixing with 10 μL of 10 mM APMA, followed by reaction for 1 hour at 37° C. This enzyme solution in amount of 10 μL was diluted to 90 μL with the assay buffer A, which was added to 90 μL of […] fluorescent substrate (MOCAc-Pro-Leu-Gly-Leu-A2pr(Dnp)-Ala-Arg-NH2, Peptide Institute, Inc., #3163-v) prepared in the assay buffer B, followed by reaction for 5 hours at 37° C.

TACE = target: T9, TACE (Homo sapiens, UniProt P78536); assay: TACE inhibition experiment (in vitro)
T9 construct: made in house; host or cells: mammalian cells or insect cells

[1] = concentration required for 50% inhibition of enzyme activity

T9 sequence (P78536 215-824): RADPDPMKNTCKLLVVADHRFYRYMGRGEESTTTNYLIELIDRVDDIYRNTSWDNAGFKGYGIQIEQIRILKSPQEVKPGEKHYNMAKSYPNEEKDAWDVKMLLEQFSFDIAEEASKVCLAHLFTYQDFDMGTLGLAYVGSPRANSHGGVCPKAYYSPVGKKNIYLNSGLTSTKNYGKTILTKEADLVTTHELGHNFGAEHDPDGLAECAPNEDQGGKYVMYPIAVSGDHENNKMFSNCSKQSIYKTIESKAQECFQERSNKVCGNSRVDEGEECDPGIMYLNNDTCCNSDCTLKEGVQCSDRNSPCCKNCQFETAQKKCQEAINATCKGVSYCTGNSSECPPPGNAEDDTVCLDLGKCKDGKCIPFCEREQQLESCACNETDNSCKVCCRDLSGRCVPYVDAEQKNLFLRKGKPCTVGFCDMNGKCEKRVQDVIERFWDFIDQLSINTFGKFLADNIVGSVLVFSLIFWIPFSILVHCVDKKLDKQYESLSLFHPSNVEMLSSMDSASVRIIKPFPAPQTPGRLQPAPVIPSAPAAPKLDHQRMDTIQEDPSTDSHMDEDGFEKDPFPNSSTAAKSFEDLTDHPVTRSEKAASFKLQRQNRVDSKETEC
T2 sequence (P14780 107-707 limits assumed): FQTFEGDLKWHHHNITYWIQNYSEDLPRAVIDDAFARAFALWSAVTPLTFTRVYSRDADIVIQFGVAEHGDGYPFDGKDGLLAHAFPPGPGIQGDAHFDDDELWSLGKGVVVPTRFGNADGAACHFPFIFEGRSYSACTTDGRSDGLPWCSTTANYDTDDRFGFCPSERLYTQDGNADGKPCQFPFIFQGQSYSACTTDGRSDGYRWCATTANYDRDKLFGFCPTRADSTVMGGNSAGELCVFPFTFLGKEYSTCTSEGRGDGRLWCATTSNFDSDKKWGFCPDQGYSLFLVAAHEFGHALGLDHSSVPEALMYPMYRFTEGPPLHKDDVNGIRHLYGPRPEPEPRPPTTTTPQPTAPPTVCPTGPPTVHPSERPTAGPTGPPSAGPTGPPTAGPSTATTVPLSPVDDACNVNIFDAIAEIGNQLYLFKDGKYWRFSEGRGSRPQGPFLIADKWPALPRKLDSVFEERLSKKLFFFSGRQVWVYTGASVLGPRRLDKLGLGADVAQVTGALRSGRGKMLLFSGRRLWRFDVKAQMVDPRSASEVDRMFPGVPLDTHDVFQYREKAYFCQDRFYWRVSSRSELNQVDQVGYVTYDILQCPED
T7 sequence (P08254 100-272 limits assumed): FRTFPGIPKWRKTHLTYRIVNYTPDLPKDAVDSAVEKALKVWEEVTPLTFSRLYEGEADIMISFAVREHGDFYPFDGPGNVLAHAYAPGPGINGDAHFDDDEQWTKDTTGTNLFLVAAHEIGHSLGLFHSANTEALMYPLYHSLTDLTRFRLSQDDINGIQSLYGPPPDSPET
T8 sequence (P22894 101-467): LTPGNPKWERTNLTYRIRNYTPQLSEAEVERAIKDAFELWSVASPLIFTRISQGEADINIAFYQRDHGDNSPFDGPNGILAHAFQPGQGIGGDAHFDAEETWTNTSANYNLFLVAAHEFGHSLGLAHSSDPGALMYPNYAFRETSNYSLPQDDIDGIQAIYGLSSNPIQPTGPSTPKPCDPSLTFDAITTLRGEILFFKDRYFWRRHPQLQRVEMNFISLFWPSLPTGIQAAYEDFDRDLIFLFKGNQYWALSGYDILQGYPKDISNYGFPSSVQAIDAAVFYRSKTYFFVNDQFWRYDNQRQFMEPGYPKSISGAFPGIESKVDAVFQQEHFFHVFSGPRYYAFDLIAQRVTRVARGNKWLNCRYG

| IC50 (Human MMP1) [µM] | IC50 (Human MMP9) [µM] | IC50 (Human MMP2) [µM] | IC50 (Human MMP13) [µM] | IC50 (Human MMP17) [µM] | IC50 (Human MMP14) [µM] | IC50 (Human MMP3) [µM] | IC50 (Human MMP8) [µM] | IC50 (Human MMP9; [1]) [µM] | IC50 (TACE) [µM] | IC50 (TACE; [1]) [µM] | SMILES |
| --- | --- | --- | --- | --- | --- | --- | --- | --- | --- | --- | --- |
| > 100 | > 100 | 28 | 32 | 2.2 | 77 | 4.2 | 23 | – | – | – | Cc1cc(COc2ccc(S(=O)(=O)CC(C=C3CCOCC3)N(O)C=O)cc2)c2ccccc2n1 (single isomer, unassigned) [Example I-33, N-hydroxy-N-{2-[4-(2-methylquinolin-4-ylmethoxy)benzenesulfonyl]-1-(tetrahydropyran-4-ylidenemethyl)ethyl}formamide] |
| > 100 | – | 60 | 25 | 3 | 70 | 5.5 | 37.5 | 53 | – | – | Cc1cc(COc2ccc(S(=O)(=O)CC(C=C3CCOCC3)N(O)C=O)cc2)c2ccccc2n1 (stereo not shown) [Example I-9, N-Hydroxy-N-{2-[4-(2-methylquinolin-4-ylmethoxy)benzenesulfonyl]-1-(tetrahydropyran-4-ylidenemethyl)ethyl}formamide] |
| 50 | – | – | – | – | 30 | – | 8 | – | – | – | Cc1cc(COc2ccc(S(=O)(=O)CC(CC3CCC(=NO)CC3)N(O)C=O)cc2)c2ccccc2n1 (stereo not shown) [Example I-27] |
| > 100 | – | 6.6 | 28 | 42 | 90 | 78 | > 100 | – | 0.55 | – | O=CN(O)C(C=C1CCC(=O)CC1)CS(=O)(=O)c1ccc(OCc2ccc3ccccc3n2)cc1 (stereo not shown) [Example I-84] |
| > 100 | > 100 | 28 | 25 | 0.9 | – | 1.7 | 18 | – | 0.026 | – | CC(=O)N1CCCC(C(CS(=O)(=O)c2ccc(OCc3cc(C)nc4ccccc34)cc2)N(O)C=O)C1 (stereo not shown) [Example I-133] |
| 60 | 30 | 10 | 12 | 20 | 33 | 15 | – | – | 0.3 | – | COc1cc(C)cc(COc2ccc(S(=O)(=O)CC(CC3CCC4(CC3)OCCO4)N(O)C=O)cc2)c1 (stereo not shown) [Example I-93] |
| 50 | 20 | 2 | 2 | 1.6 | 7 | 1.2 | – | – | 0.08 | – | Cc1cc(Cl)cc(COc2ccc(S(=O)(=O)CC(C3CCC4(CC3)OCCO4)N(O)C=O)cc2)c1 (stereo not shown) [Example I-98] |
| > 100 | > 100 | > 100 | 70 | 7 | > 100 | 20 | – | – | 0.0063 | – | Cc1cc(COc2ccc(S(=O)(=O)CC(C(Cl)=C3CCOCC3)N(O)C=O)cc2)c2ccccc2n1 (stereo not shown) [Example I-19] |
| 60 | 38 | 38 | 25 | 40 | 33 | 30 | – | – | 0.5 | – | Cc1cc(Cl)cc(COc2ccc(S(=O)(=O)CC(C=C3CCC4(CC3)OCCO4)N(O)C=O)cc2)c1 (stereo not shown) [Example I-103] |
| 40 | 40 | 10 | 6 | 1.6 | 31 | 0.8 | – | – | 0.005 | – | Cc1ccc2nc(C)cc(COc3ccc(S(=O)(=O)CC(CC4CCC(=NO)CC4)N(O)C=O)cc3)c2c1 (stereo not shown) [Example I-76] |
| 80 | 40 | 20 | 16 | 30 | 33 | 25 | – | – | 0.13 | – | Cc1cc(Cl)cc(COc2ccc(S(=O)(=O)CC(C=C3CCC(=NO)CC3)N(O)C=O)cc2)c1 (stereo not shown) [Example I-102] |
| 40 | 20 | 5 | 18 | 13 | 25 | 6 | – | – | 1.1 | – | Cc1cc(Cl)cc(COc2ccc(S(=O)(=O)CC(CC3CCC4(CC3)OCCO4)N(O)C=O)cc2)c1 (stereo not shown) [Example I-99] |
| 60 | 50 | 30 | 15 | 2.1 | 33 | 3 | – | – | 0.005 | – | Cc1cc(COc2ccc(S(=O)(=O)CC(c3ccccc3C)N(O)C=O)cc2)c2ccccc2n1 (stereo not shown) [Example I-23] |
| 90 | 40 | 23 | 20 | 22 | 40 | 21 | – | – | 0.08 | – | COc1cc(C)cc(COc2ccc(S(=O)(=O)CC(C=C3CCC(=O)CC3)N(O)C=O)cc2)c1 (stereo not shown) [Example I-94] |
| 45 | 28 | 30 | 10 | 2 | 35 | 3 | – | – | 0.07 | – | CON=C1CCC(C(CS(=O)(=O)c2ccc(OCc3cc(C)nc4ccccc34)cc2)N(O)C=O)CC1 (stereo not shown) [Example I-12] |
| 40 | 20 | 2.3 | 3 | 5 | 20 | 7 | – | – | 0.12 | – | Cc1cc(Cl)cc(COc2ccc(S(=O)(=O)CC(CC3CCC(=O)CC3)N(O)C=O)cc2)c1 (stereo not shown) [Example I-101] |
| 45 | – | 6 | 5 | 1.1 | 23 | 1.2 | – | 12 | – | 0.06 | Cc1cc(COc2ccc(S(=O)(=O)CC(CC3CCC4(CC3)OCCO4)N(O)C=O)cc2)c2ccccc2n1 (stereo not shown) [Example I-10] |
| > 100 | > 100 | 4.1 | 8 | 30 | > 100 | 30 | – | – | 0.05 | – | Cc1cc(COc2ccc(S(=O)(=O)CC(C=C3CCC(=NO)CC3)N(O)C=O)cc2)cc(C)n1 (stereo not shown) [Example I-111] |
